Molecules are shown by their SMILES. “And” between values parts separate entries of the source, which are not always exact repeats. Identical values can stand only once. Like-named read-outs stand apart in the source and are kept apart here.

One experiment concerns OBX C57BL/6J mice. Briefly: Olfactory bulbectomy (OBX) model, open field test. It is filed as in vivo. Conditions: 30 mg kg−1, within 1 h. From the text:
Male C57BL/6J mice (8–12 weeks old) were anesthetized by intraperitoneal injection of tiletamine‐zolazepam‐xylazine. Following confirmation of anesthesia, a midline scalp incision was made to expose the skull, and the bregma was identified as the anatomical reference point. Using a stereotaxic frame (Stoelting), bilateral olfactory bulbs (4 mm anterior to the bregma) were aspirated through a 1‐mm burr hole drilled with a dental drill. Hemostatic sponges were applied to the burr holes, and the incision was closed with 5‐0 silk sutures. The sham‐operated controls underwent identical procedures without bulb aspiration. Prophylactic antibiotic therapy (25% ampicillin, […], i.p.) was administered daily for three consecutive days post‐surgery. The animals were monitored during a 14‐day recovery period prior to behavioral assessments. After euthanasia, successful bulbectomy was verified by gross anatomical inspection, and habenular tissues were dissected on ice for subsequent molecular analyses.
This test was used to assess anxiety‐related behaviors in the mice. C57BL/6J mice were individually habituated to a 40 × 40 × 40 cm^3 open field arena under dim light for […]. Locomotor activity during the final 5 min was digitally recorded (30 fps) and analyzed using Tracking Master (Future Life Science (Shanghai) Co., Ltd., Shanghai, China). […]

A further experiment addresses T1, Kir4.2 (Homo sapiens, UniProt Q99712).
T1 construct: host or cells: CHO-K1
T1 sequence (Q99712 1-375): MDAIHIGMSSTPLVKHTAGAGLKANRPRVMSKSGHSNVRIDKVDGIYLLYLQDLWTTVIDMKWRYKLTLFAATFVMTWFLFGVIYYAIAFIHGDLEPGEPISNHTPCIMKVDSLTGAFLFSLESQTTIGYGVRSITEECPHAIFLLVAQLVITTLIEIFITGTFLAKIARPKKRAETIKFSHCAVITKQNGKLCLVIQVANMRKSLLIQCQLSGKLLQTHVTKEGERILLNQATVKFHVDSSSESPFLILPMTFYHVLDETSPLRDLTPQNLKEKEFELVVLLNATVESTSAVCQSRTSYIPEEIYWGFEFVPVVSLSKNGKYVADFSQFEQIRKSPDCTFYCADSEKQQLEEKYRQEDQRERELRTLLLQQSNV
The experiment is described as follows: Whole-cell patch clamp, Kir4.2. It is filed as cell-based. Here is the method: Plasmids encoding WT human potassium channels Kir1.1, Kir2.1, Kir2.2, Kir4.1, and Kir4.2 were obtained from the Beijing Genomics Institute. All point mutations were constructed using the QuickChange II Site‐Directed Mutagenesis Kit (Stratagene) and subsequently verified by sequencing.
CHO‐K1 cells were maintained in DMEM/F12 growth medium containing 10% fetal bovine serum. Plasmids encoding the target genes (3600 ng) and enhanced green fluorescent protein (400 ng) were cotransfected into cells using Lipofectamine 2000 (Invitrogen) in accordance with the manufacturer's instructions. Cells were seeded onto poly‐d‐lysine (PDL)‐coated glass coverslips 1 h prior to electrophysiological recordings. All cells were cultured under standard conditions of 5% CO2 at 37 °C.
Whole‐cell patch‐clamp recordings were obtained either in transiently transfected CHO‐K1 cells or in primary cultured astrocytes at room temperature using standard patch‐clamp techniques with an Axopatch‐700B amplifier (Axon Instruments). The signals were filtered at 2 kHz and sampled at 20 kHz using the Digidata 1440A interface (Axon Instruments). The resistance of borosilicate glass pipettes was typically 2–4 MΩ when filled with the internal solution. Drug application was facilitated using a BPS perfusion system (ALA Scientific Instruments). Macroscopic currents generated by expressed potassium channels were recorded under the voltage‐clamp conditions with an internal pipette solution composed of (in mM): 140 KCl, 5 NaCl, 1 CaCl2, 1 MgCl2, 10 HEPES, and 10 EGTA, pH 7.2 adjusted with KOH. The external solution contained (in mM): 140 NaCl, 5 KCl, 2 CaCl2, 1 MgCl2, 10 glucose, and 10 HEPES, pH 7.4 adjusted with NaOH. Currents were elicited with a hyperpolarized voltage at −120 mV from the holding potential of −80 mV, followed by a ramp voltage depolarizing to +50 mV. Astrocytic resting membrane potentials were recorded under current‐clamp conditions (I = 0 pA) using standard internal and external solutions, determined immediately after achieving whole‐cell mode.
A general note: Patch clamp records ionic current or voltage across a cell membrane.

A further experiment concerns the target T2, Kir4.1 (Homo sapiens, UniProt P78508).
T2 construct: host or cells: CHO-K1
T2 sequence (P78508 1-379): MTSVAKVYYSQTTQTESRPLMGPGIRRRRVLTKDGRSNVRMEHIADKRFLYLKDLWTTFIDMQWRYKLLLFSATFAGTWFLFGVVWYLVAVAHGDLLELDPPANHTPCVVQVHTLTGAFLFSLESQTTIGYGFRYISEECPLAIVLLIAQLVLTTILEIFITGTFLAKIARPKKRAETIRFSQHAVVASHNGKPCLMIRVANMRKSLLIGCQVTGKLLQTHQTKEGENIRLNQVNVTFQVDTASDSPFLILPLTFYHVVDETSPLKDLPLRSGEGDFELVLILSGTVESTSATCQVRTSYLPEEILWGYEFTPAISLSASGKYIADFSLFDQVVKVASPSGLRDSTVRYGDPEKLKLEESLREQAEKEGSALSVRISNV
Briefly: Whole-cell patch clamp, Kir4.1 currents in transfected CHO-K1 cells. To be noted: for inhibition at 1 µM: CHO-K1, 1 μM; for inhibition at 10 µM: CHO-K1, 10 μM; for IC50: whole-cell patch clamp. It counts as cell-based. A digest of the protocol: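 Transiently transfected CHO-K1 cells (with EGFP), whole-cell voltage clamp at room temperature; pipette 140 mM KCl pH 7.2, bath 140 mM NaCl/5 mM KCl pH 7.4. Currents evoked from −80 mV holding by a step to −120 mV then ramp to +50 mV; compounds applied by perfusion.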

In another experiment the test system is C57BL/6J mice after CSDS. Briefly: Chronic social defeat stress (CSDS) model, sucrose preference test. It counts as in vivo. To be noted: single i.p. injection 10 mg kg−1. Here is the method: The 10‐day CSDS paradigm was conducted as previously described.^[ [24] ^] CD‐1 aggressive mice were singly housed in defeat cages on one side of a perforated plexiglass partition 24 h before the defeat session. Experimental C57BL/6J mice were placed daily on the resident cage side of a novel CD‐1 aggressor that rapidly initiated a physical attack on the intruder. After 10‐min of social defeat, the intruder mice were housed on the opposite side of the partition within a shared home cage, experiencing further sensory contact for the subsequent 24 h. In contrast, control mice were maintained in their home cages and allowed to explore the empty defeat cages for 10 min each day.
Mice were individually housed with two identical bottles containing either 1% sucrose solution or tap water for 24 h. The bottles were then replaced to eliminate potential positional bias, followed by an additional 24‐h period with the same solutions. Subsequently, the mice were provided with tap water for 24 h. During the experimental phase, new bottles filled with either 1% sucrose solution or tap water were presented for 24 h, and the bottles were changed every 12 h. The bottles were weighed both before and after the 24‐h test to assess consumption of each solution.

Take `c1ccc2c(c1)oc1ccc(Nc3ccnc(NCCCN4CCOCC4)n3)cc12` [JX3212, N^4-(dibenzo[b,d]furan-2-yl)-N^2-(3-morpholinopropyl)pyrimidine-2,4-diamine]: the “OBX: percentage of distance traveled in the center (in words)” value in the experiment on OBX C57BL/6J mice is given as “increased percentage of distance traveled in the center”. The “OBX: total distance traveled (in words)” value with OBX C57BL/6J mice was “did not affect the distance traveled”. This compound also registered a Kir4.2 blockade on Kir4.2 (3 µM, mean ± SEM) of 86.57 ± 10.51%. In addition, the “Kir isoforms: Kir4.2 inhibition, single recordings” value on Kir4.2 (JX3212 3 µM (Fig 2A)) was 93.8526 and 74.5275. Also, the inhibition at 3 µM is 91.3% on Kir4.2 (JX3212 3 µM (Fig 2A), read-out: Kir isoforms: Kir4.2 inhibition, single recordings); 92.4 ± 2.25% at Kir4.1 (CHO-K1, 3 µM, mean ± SEM, read-out: current inhibition, Kir4.1 WT); 94.9% on Kir4.1 (CHO-K1, JX3212 3 µM (Fig 2A), read-out: Kir isoforms: Kir4.1 inhibition, single recordings); 92.1% on Kir4.1 (CHO-K1, JX3212 3 µM (Fig 2D), read-out: Mutation: Kir4.1 WT inhibition, single recordings). For the same compound, the inhibition at 0.5 µM is 82.8 ± 1.51% on Kir4.1 (CHO-K1, 0.5 μM, +50 mV, read-out: Kir4.1 Inhibition ± SD (%) at 0.5 μM, +50 mV); 73.2 ± 3.59% on Kir4.1 (CHO-K1, 0.5 μM, -120 mV, read-out: Kir4.1 Inhibition ± SD (%) at 0.5 μM, -120 mV); above 60% at Kir4.1 (CHO-K1, 0.5 µM, read-out: Kir4.1 inhibition at 0.5 µM). Besides, the inhibition at 1 µM at Kir4.1 (+50 mV, read-out: Kir4.1 Inhibition ± SD (%) at 1 μM, +50 mV) was found to be 82.5 ± 5.51%; on Kir4.1 (-120 mV, read-out: Kir4.1 Inhibition ± SD (%) at 1 μM, -120 mV), 84.5 ± 3.09%. The inhibition at 10 µM came out at 96 ± 1.52% on Kir4.1 (+50 mV, read-out: Kir4.1 Inhibition ± SD (%) at 10 μM, +50 mV) and 97.3 ± 1.01% on Kir4.1 (-120 mV, read-out: Kir4.1 Inhibition ± SD (%) at 10 μM, -120 mV). For the same compound, the “Kir isoforms: Kir4.1 inhibition, single recordings” value at Kir4.1 (JX3212 3 µM (Fig 2A)) is 94.131 and 95.7029. In addition, on Kir4.1 (JX3212 3 µM (Fig 2D)), the “Mutation: Kir4.1 WT inhibition, single recordings” value was 94.7739 and 90.2954. Further, the “improvement in target activity over lead EHop-016” value at Kir4.1 (Kir4.1 IC50 ratio) is reported as 2.6 fold. In addition, the half-inhibitory concentration (IC50) on Kir4.1 (CHO cells transiently expressing Kir4.1, +50 mV, read-out: IC50 for Kir4.1 inhibition (+50 mV, outward currents)) is 190 nM; on Kir4.1 (CHO cells transiently expressing Kir4.1, −120 mV, read-out: IC50 for Kir4.1 inhibition (−120 mV, inward currents)) it was 280 nM. Moreover, in the experiment with C57BL/6J mice after CSDS, the “CSDS: sucrose preference in SPT (in words)” value is listed as “nonsignificant increase in the sucrose preference ratio”.

Broadly, the inhibition is how much of the control response was suppressed. By IC50 is commonly meant the concentration at which inhibition is half-maximal.

For the origin of these results see publication PMC12903969, “Discovery of a Novel and Potent Kir4.1 Inhibitor as a Safe and Rapid‐Onset Antidepressant Agent in Mice” (Advanced Science, 2025).
